One block for each compound: values may come before it. Where no end group is shown, it is not given here.
What was measured:
[1] = tested on: MDA-MB-435 breast carcinoma; test: Tumor therapy of mice bearing MDA-MB-435 breast carcinoma; format: in vivo, mouse
Experimental: Female 2-month old Balb c nu/nu mice (Harlan Sprague Dawley; San Diego Calif.) were used for these studies and were cared for according to the Burnham Institute animal facility guidelines. […] Tumors were allowed to grow to a size of about 1 cm^3 (about 5% of the mouse's body weight) before starting the treatment experiments, except for the toxicity experiments as discussed below.
Weekly doxorubicin/peptide conjugate or control treatments (5 μg/mouse/week of doxorubicin-equivalent) were administered intravenously. In some experiments, as indicated, a dose of 30 μg/mouse was administered every 3 weeks. […] As an additional control, in some experiments the tumor homing peptide was mixed with doxorubicin, without linking, and the mixture was administered to tumor bearing mice.
Mice were anesthetized with a tribromoethanol-based anesthetic mixture (AVERTIN; Papaioannou and Fox, Lab. Anim. 43:189-192 (1993)) before each treatment. Anesthetization facilitated the tail vein injections (final volume, 200 μl) and allowed precise serial three dimensional tumor size measurements. Tumor volume calculations were based on the equation for the volume of an ovaloid: V=4/3(nabc), where a, b, and c are ½ of the measured diameters in each of the three dimensions.
Briefly, mice with size-matched tumors (˜1000 mm^3) were randomized into four treatment groups (six animals per group): vehicle only, free doxorubicin, doxorubicin-control peptide, and doxorubicin-CNGRC (SEQ ID NO:8). Mice were treated at 5 μg/mouse/week of doxorubicin-equivalent, and the difference in tumor volumes between day 1 and day 28 determined (FIG. 11A).

Hodgkin's lymphoma = test: Treatment of mice bearing Hodgkin's lymphoma; format: in vivo; conditions: two doses, 40 μg/mouse doxorubicin equivalent, tumors ~5000 mm^3
Experimental: Mice bearing large (˜5000 mm^3) Hodgkin's lymphoma (eight animals per group) were randomized to receive two doses of free doxorubicin plus unconjugated CNGRC peptide or doxorubicin-CNGRC (SEQ ID NO:8) conjugate at 40 μg/mouse of doxorubicin equivalent.

[2] = Acute toxicity in mice bearing extremely large tumors; conditions: mouse, in vivo
CD13 [3] = molecular target: T1, CD13 (Homo sapiens, UniProt P15144); test: Phage binding assays with CD13/APN-transfected cells; format: cell-based; set-up: expressed in transfected cells; host or cells: Molt-4 human T cell leukemia; conditions: 250 and 500 μg/ml
T1 sequence (P15144 whole entry): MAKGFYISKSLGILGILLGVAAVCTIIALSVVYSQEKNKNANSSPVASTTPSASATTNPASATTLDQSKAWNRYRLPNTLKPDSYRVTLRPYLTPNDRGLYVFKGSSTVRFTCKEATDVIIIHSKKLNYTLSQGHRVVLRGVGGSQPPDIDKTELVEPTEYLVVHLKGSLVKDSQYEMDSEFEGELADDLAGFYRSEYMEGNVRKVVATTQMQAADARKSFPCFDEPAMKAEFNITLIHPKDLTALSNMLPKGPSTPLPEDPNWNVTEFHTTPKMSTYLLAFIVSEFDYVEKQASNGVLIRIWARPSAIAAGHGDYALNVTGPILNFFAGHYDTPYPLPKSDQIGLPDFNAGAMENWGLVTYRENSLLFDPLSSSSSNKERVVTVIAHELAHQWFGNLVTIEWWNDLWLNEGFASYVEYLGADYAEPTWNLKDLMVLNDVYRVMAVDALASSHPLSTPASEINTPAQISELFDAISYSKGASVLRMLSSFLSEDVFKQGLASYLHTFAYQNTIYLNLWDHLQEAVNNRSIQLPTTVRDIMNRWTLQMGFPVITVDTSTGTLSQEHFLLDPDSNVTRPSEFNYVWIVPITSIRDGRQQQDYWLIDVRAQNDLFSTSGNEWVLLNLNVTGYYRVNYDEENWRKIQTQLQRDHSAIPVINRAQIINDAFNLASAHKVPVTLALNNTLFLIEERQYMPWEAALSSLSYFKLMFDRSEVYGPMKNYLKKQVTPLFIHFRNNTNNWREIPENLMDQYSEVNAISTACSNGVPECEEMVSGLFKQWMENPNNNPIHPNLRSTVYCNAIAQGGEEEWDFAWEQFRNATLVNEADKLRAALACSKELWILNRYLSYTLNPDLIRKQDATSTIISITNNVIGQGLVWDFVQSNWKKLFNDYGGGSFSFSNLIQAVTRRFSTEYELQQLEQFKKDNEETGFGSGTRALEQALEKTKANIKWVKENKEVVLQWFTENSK
Experimental: The CNGRC phage binds specifically to cells transfected with CD13. […] Briefly, mock transfected Molt-4 cells (“Molt-4/mock”) and cells transfected with CD13 (“Molt-4/CD13”) were incubated with CNGRC (SEQ ID NO:8) phage or with control Fd phage lacking an insert (2×10^9 transducing units (TU) per sample). Synthetic peptides, CNGRC (SEQ ID NO:8) or the negative control CARAC (SEQ ID NO:221), were pre-incubated with the cells at 250 and 500 μg/ml. After extensive washing, bound phage were quantitated by infection of bacteria as described above.

CD13/APN = molecular target: T2, CD13/APN (Homo sapiens, UniProt P15144); test: Affinity chromatography of cell extracts on immobilized peptide; format: binding; conditions: Molt-4/CD13, MDA-MB-435/CD13 or HL-60 cell extracts
T2 construct: Experiments were performed using HL-60 cell extracts because they are known to express CD13/APN; endogenous in cells; host or cells: HL-60 cells (extract)
T2 sequence (P15144 whole entry): as above
Experimental: To further characterize the interaction of CD13/APN with the NGR peptide, affinity chromatography on the CNGRC peptide was performed. The column was prepared by coupling the CNGRC peptide to SEPHAROSE (Pharmacia; Piscataway N.J.). Elution was effected with soluble CNGRC peptide. […] Extracts of Molt-4 and MDA-MB-435 cells transfected with CD13/APN were also characterized by using affinity chromatography, with extracts of the mock transfected counterparts used as negative controls.
The fractions were also analyzed for CD13 enzymatic activity using AlapNA as the substrate.

[4] = tested on: MDA-MB-435 derived tumors; test: In vivo targeting of phage to breast carcinoma xenografts (phage recovery); set-up: species or system mouse
Experimental: When the tumors attained a diameter of about 1 cm, phage expressing a specific RGD-containing peptide were administered to the tumor bearing mouse. Similar results to those discussed below also were obtained with nude mice bearing tumors formed by implantation of human melanoma C8161 cells or by implantation of mouse B16 melanoma cells.
1×10^9 phage expressing the RGD-containing peptide, RGD-4C ([…]; SEQ ID NO:1; see, Koivunen et al., supra, 1995) or control (insertless) phage were injected intravenously (iv) into the mice and allowed to circulate for 4 min. The mice then were snap frozen or perfused through the heart while under anesthesia, and various organs, including tumor, brain and kidney, were removed and the phage present in the organs was quantitated (see U.S. Pat. No. 5,622,699; Pasqualini and Ruoslahti, supra, 1996).
Phage displaying tumor homing peptides were recovered from breast carcinoma xenografts. […] The mean number of phage recovered from the tumor or control tissue (brain) and the standard error of the mean (SEM) from triplicate platings are shown in FIG. 1.
An insertless phage with a different selective marker (ampicillin instead of tetracycline) was co-injected with the NGR phage at the same input to assess specificity within the same tumor-bearing animal. The ratios were calculated using the number of co-injected control ampicillin-resistant phage recovered from the same tissues. The phage were quantitated from triplicate platings on tetracycline (the homing phage) or ampicillin (control phage) selective plates. Various additional control phage were injected separately into tumor-bearing mice. These controls included: fd-tet phage without insert; unselected phage library mixtures; phage selected and shown to home to other normal vascular beds; and phage displaying peptides that were unrelated to NGR. The RGD-4C ([…]; SEQ ID NO:1) phage served as a positive control.

CD13 [5] = molecular target: T1, CD13; test: Phage binding to immobilized CD13; set-up: Kaposi's sarcoma tumor cell octylglucoside extracts were used as a source of CD13/APN; endogenous in cells; host or cells: Kaposi's sarcoma tumor cells (octylglucoside extract); conditions: 200 μg/well
Experimental: In FIG. 4B, NGR-containing phage were assayed for the ability to bind CD13. […] Various phage were added to the wells at 2×10^9 transducing units (TU) per well. […] The data were expressed as means and standard errors from triplicate wells.
The data shown were expressed as means and standard errors from triplicate wells.

CD13 [6] = molecular target: T3, CD13 (Gallus gallus, UniProt O57579); test: bFGF-induced angiogenesis in chicken chorioallantoic membrane (CAM); format: in vivo; conditions: topical, 3 days
T3 construct: CD13 is expressed in CAM angiogenic vasculature; from tissue; host or cells: chorioallantoic membrane of 10-day chicken embryos
T3 sequence (O57579 1-972): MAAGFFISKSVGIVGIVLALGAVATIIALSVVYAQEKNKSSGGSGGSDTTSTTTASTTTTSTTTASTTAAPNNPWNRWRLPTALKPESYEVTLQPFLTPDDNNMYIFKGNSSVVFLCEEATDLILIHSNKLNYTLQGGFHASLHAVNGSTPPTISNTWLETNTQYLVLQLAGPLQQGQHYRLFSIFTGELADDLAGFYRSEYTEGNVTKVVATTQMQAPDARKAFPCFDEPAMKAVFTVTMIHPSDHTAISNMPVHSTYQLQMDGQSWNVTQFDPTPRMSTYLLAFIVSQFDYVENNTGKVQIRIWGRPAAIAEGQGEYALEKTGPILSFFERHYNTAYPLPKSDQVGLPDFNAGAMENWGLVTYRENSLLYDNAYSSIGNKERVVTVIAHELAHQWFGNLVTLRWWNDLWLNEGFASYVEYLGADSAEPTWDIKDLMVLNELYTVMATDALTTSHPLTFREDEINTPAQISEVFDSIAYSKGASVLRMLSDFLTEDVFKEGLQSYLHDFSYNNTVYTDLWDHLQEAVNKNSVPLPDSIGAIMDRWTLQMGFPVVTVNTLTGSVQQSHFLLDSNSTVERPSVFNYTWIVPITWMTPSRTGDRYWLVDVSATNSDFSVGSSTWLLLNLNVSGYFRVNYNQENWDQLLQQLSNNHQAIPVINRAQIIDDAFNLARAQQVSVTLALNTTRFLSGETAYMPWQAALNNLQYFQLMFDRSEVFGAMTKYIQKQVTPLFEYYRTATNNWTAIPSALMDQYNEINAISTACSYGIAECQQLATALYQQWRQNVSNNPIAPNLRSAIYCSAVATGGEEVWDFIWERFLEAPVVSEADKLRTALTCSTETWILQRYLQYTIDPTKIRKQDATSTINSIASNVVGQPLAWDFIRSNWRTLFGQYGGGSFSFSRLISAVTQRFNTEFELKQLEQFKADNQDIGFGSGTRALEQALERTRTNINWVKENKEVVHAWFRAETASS
Description: Various treatments were applied topically, and, after 3 days, the filters and surrounding CAMs were resected and fixed in formalin.
Each bar represents the mean number of vessels and standard errors from 8 CAMs on each group.

CD13/aminopeptidase N = CD13/aminopeptidase N (Homo sapiens, UniProt P15144); conditions: cited from earlier work
CD13/aminopeptidase N, sequence (P15144 whole entry): as the sequence (P15144 whole entry) above

[7] = high doses; cited from earlier work
[8] = 5 μg/mouse/week doxorubicin-equivalent iv

Compound: doxorubicin/CNGRC (not fully specified (bridges); cysteine pairing not given here; also: doxorubicin conjugate)
- survival [1, 8]: A marked effect on survival
- tumor size versus doxorubicin control [1, 8]: significantly smaller
- survival versus doxorubicin alone ([1]; 5 μg/mouse/week or single dose 200 μg/mouse doxorubicin equivalent): lived longer
- cures ([1]; mouse, in vivo): Cures were also observed
- effect on tumor growth ([1]; relative to vehicle alone): almost completely suppressed tumor growth
- survival versus unconjugated peptide doxorubicin mixture (Hodgkin's lymphoma): lived longer
- toxicity compared with free doxorubicin [2]: less toxic than free doxorubicin

Compound: CNGRC
- inhibition of CNGRC phage binding to CD13 transfected cells by synthetic peptide (CD13 [3]): blocked
- elution of CD13/APN from the CNGRC column by soluble peptide (CD13/APN): yielded fractions containing functional CD13/APN
- inhibition of accumulation of the two other NGR-displaying phage by co-injected soluble peptide ([4]; breast carcinoma xenografts): also inhibited the accumulation
- inhibition of tumor homing of CNGRCVSGCAGRC (NGR) phage by co-injected soluble peptide ([4]; breast carcinoma xenografts): inhibited the accumulation
- inhibition of tumor homing of RGD-4C phage by co-injected soluble peptide ([4]; increasing amounts of peptide): not inhibited
- inhibition of NGR-phage binding to CD13 by peptide (CD13 [5]): Inhibition

- effect on bFGF-induced angiogenesis in CAM (CD13 [6]): suppress bFGF-induced angiogenesis
Compound: CC(C)C[C@H](NC(=O)[C@@H](O)[C@H](N)Cc1ccccc1)C(=O)O [bestatin]
- block of cell-surface CD13/aminopeptidase N enzymatic activity (CD13/aminopeptidase N): potently blocked
- effect on metastasis [7]: marked suppression of experimental and spontaneous metastasis
